The structures appear in SMILES notation. Activity calls are given as the source filed them. No cut-off for these calls is given here.

A short description of data set [1]: Toxicity in Sprague-Dawley rat model of uremia-associated vascular calcification assessed as change in body weight in presence of calcitriol. To be noted: in vivo.
The test system of data set [2] is Rattus norvegicus. Briefly: Effect on sodium level in urine in Sprague-Dawley rat at 1 mg/kg administered via oral gavage measured after 16 hrs by gravimetric analysis relative to vehicle-treated control. Type of data set: functional.
Data set [3] relates to Rattus norvegicus. Description: Effect on sodium level in urine in Sprague-Dawley rat at 2 mg/kg administered via oral gavage measured after 16 hrs by gravimetric analysis relative to vehicle-treated control. Type of data set: functional.
The test system of data set [4] is Rattus norvegicus. Briefly: Effect on phosphate level in urine in Sprague-Dawley rat at 2 mg/kg administered via oral gavage measured after 16 hrs by gravimetric analysis relative to vehicle-treated control. Type of data set: functional.
Data set [5] relates to Rattus norvegicus. Briefly: Reduction in serum creatinine level in adenine-induced uremic Sprague-Dawley rat model at 2 to 5 mg/kg administered with chow diet. Type of data set: functional, organism-based.
The species named for data set [6] is Rattus norvegicus. Description: Reduction in aortic calcium content in Sprague-Dawley rat model of uremia-associated vascular calcification measured after 27 days in presence of calcitriol. Type of data set: functional.
In data set [7] the test system is Rattus norvegicus. Description: Effect on urinary excretion of phosphorus in dietary salt-induced Sprague-Dawley rat partial ablation model of chronic kidney disease at 0.3 to 3 mg/kg administered with chow diet measured after 7 days. Type of data set: functional, organism-based.
For data set [8], the system named is Rattus norvegicus. Briefly: Reduction in urinary calcium mass in rat at 0.3 to 3 mg/kg administered with diet relative to vehicle-control. Type of data set: functional, organism-based.
Data set [9] is filed under the species Rattus norvegicus. Description: Reduction in aortic phosphorus content in Sprague-Dawley rat model of uremia-associated vascular calcification measured after 27 days in presence of calcitriol. Type of data set: functional.
Data set [10] deals with Rattus norvegicus. Description: Anti-remodeling activity in adenine-induced uremic Sprague-Dawley rat model assessed as decrease in ratio of aortic arch weight to body weight at 2 to 5 mg/kg administered with chow diet. Type of data set: functional, organism-based.
For data set [11], the species on record is Rattus norvegicus. Briefly: Effect on heart hypertrophy in Sprague-Dawley rat model of uremia-associated vascular calcification assessed as reduction in heart to body weight ratio measured after 27 days in presence of calcitriol. Type of data set: functional.
For data set [12], the species on record is Rattus norvegicus. Briefly: Reduction in stomach calcium content in Sprague-Dawley rat model of uremia-associated vascular calcification measured after 27 days in presence of calcitriol. Type of data set: functional.
The test system of data set [13] is Rattus norvegicus. Briefly: Anti-remodeling activity in adenine-induced uremic Sprague-Dawley rat model assessed as decrease in ratio of stomach weight to body weight at 2 to 5 mg/kg administered with chow diet. Type of data set: functional, organism-based.
Data set [14] deals with Rattus norvegicus. Description: Reduction in urinary phosphorus mass in rat at 0.3 to 3 mg/kg administered with diet relative to vehicle-control. Type of data set: functional, organism-based.
For data set [15], the system named is Rattus norvegicus. Briefly: Antihypertrophic activity in dietary salt-induced Sprague-Dawley rat partial ablation model of chronic kidney disease assessed as change in kidney morphology at 0.3 to 3 mg/kg administered with chow diet measured after 7 days. Type of data set: functional, organism-based.
For data set [16], the species on record is Rattus norvegicus. Briefly: Reduction in plasma FGF23 level in Sprague-Dawley rat model of uremia-associated vascular calcification measured after 27 days in presence of calcitriol. Type of data set: functional.
The subject of data set [17] is Rattus norvegicus. Description: Reduction in serum phosphorus level in adenine-induced uremic Sprague-Dawley rat model at 2 to 5 mg/kg administered with chow diet. Type of data set: functional, organism-based.
The species entered for data set [18] is Rattus norvegicus. Description: Reduction in stomach phosphorus content in Sprague-Dawley rat model of uremia-associated vascular calcification measured after 27 days in presence of calcitriol. Type of data set: functional.
The test system of data set [19] is Rattus norvegicus. Briefly: Anti-remodeling activity in adenine-induced uremic Sprague-Dawley rat model assessed as decrease in ratio of kidney weight to body weight at 2 to 5 mg/kg administered with chow diet. Type of data set: functional, organism-based.
Data set [20] has as its system Rattus norvegicus. Description: Anti-remodeling activity in adenine-induced uremic Sprague-Dawley rat model assessed as decrease in ratio of heart weight to body weight at 2 to 5 mg/kg administered with chow diet. Type of data set: functional, organism-based.
Data set [21] deals with Rattus norvegicus. Description: Reduction in aortic calcium content in adenine-induced uremic Sprague-Dawley rat model at 5 mg/kg administered with chow diet. Type of data set: functional, organism-based.
For data set [22], the system named is Rattus norvegicus. Description: Antihypertensive activity in dietary salt-induced Sprague-Dawley rat partial ablation model of chronic kidney disease assessed as reduction in blood pressure at 0.3 to 3 mg/kg administered with chow diet measured after 7 days. Type of data set: functional, organism-based.
The species entered for data set [23] is Rattus norvegicus. Briefly: Reduction in plasma creatinine level in Sprague-Dawley rat model of uremia-associated vascular calcification measured after 27 days in presence of calcitriol. Type of data set: functional.
Data set [24] is filed under the species Rattus norvegicus. Briefly: Effect on kidney hypertrophy in Sprague-Dawley rat model of uremia-associated vascular calcification assessed as reduction in kidney to body weight ratio measured after 27 days in presence of calcitriol. Type of data set: functional.
Data set [25] concerns Rattus norvegicus. Briefly: Reduction in stomach phosphorus content in adenine-induced uremic Sprague-Dawley rat model at 5 mg/kg administered with chow diet. Type of data set: functional, organism-based.
Data set [26] can be described thus: Reduction in fluid overload in dietary salt-induced Sprague-Dawley rat partial ablation model of chronic kidney disease at 0.3 to 3 mg/kg administered with chow diet measured after 7 days. Type of data set: functional, organism-based.
Data set [27] is filed under the species Rattus norvegicus. Description: Increase in plasma calcium level in Sprague-Dawley rat model of uremia-associated vascular calcification measured after 27 days in presence of calcitriol. Type of data set: functional.
Data set [28] relates to Rattus norvegicus. Briefly: Reduction in aortic phosphorus content in adenine-induced uremic Sprague-Dawley rat model at 5 mg/kg administered with chow diet. Type of data set: functional, organism-based.
For data set [29], the species on record is Rattus norvegicus. Description: Reduction in plasma phosphorus level in Sprague-Dawley rat model of uremia-associated vascular calcification measured after 27 days in presence of calcitriol. Type of data set: functional.
Data set [30] deals with Rattus norvegicus. Briefly: Reduction in albuminuria in dietary salt-induced Sprague-Dawley rat partial ablation model of chronic kidney disease at 0.3 to 3 mg/kg administered with chow diet measured after 7 days. Type of data set: functional, organism-based.
The species entered for data set [31] is Rattus norvegicus. Description: Reduction in creatinine clearance in Sprague-Dawley rat model of uremia-associated vascular calcification measured after 27 days in presence of calcitriol. Type of data set: functional.
For data set [32], the species on record is Rattus norvegicus. Briefly: Increase in plasma albumin level in Sprague-Dawley rat model of uremia-associated vascular calcification measured after 27 days in presence of calcitriol. Type of data set: functional.
The subject of data set [33] is Rattus norvegicus. Description: Antihypertrophic activity in dietary salt-induced Sprague-Dawley rat partial ablation model of chronic kidney disease assessed as change in heart morphology at 0.3 to 3 mg/kg administered with chow diet measured after 7 days. Type of data set: functional, organism-based.
Data set [34] is filed under the species Rattus norvegicus. Briefly: Increase in plasma aldosterone level in Sprague-Dawley rat model of uremia-associated vascular calcification measured after 27 days in presence of calcitriol. Type of data set: functional.
Data set [35] concerns Rattus norvegicus. Briefly: Reduction in stomach calcium content in adenine-induced uremic Sprague-Dawley rat model at 5 mg/kg administered with chow diet. Type of data set: functional, organism-based.
Data set [36] relates to Rattus norvegicus. Briefly: Effect on phosphate level in urine in Sprague-Dawley rat at 0.03 mg/kg administered via oral gavage measured after 16 hrs by gravimetric analysis relative to vehicle-treated control. Type of data set: functional.

With `CN1Cc2c(Cl)cc(Cl)cc2[C@H](c2cccc(S(=O)(=O)NCCOCCOCCNC(=O)NCCCCNC(=O)NCCOCCOCCNS(=O)(=O)c3cccc([C@@H]4CN(C)Cc5c(Cl)cc(Cl)cc54)c3)c2)C1.Cl.Cl` [TENAPANOR HYDROCHLORIDE], the Activity entry in data set [1] is “Non-Toxic”; in data set [2], 11%.

As for `CN1Cc2c(Cl)cc(Cl)cc2[C@H](c2cccc(S(=O)(=O)NCCOCCOCCNC(=O)CCC(CCC(=O)NCCOCCOCCNS(=O)(=O)c3cccc([C@@H]4CN(C)Cc5c(Cl)cc(Cl)cc54)c3)(CCC(=O)NCCOCCOCCNS(=O)(=O)c3cccc([C@@H]4CN(C)Cc5c(Cl)cc(Cl)cc54)c3)NC(=O)NCP(=O)(O)O)c2)C1`, the Activity in data set [3] is on record as 130%; in data set [4], 50%.

Take `CN1Cc2c(Cl)cc(Cl)cc2[C@H](c2cccc(S(=O)(=O)NCCOCCOCCNC(=O)NCCCCNC(=O)NCCOCCOCCNS(=O)(=O)c3cccc([C@@H]4CN(C)Cc5c(Cl)cc(Cl)cc54)c3)c2)C1`: the result in data set [5], in data set [6], in data set [7], in [8], in data set [9] and in data set [10] was Active. Besides, the result in data set [11], in data set [12], in data set [13], in [14], in [15] and in data set [16] was Active. Moreover, the outcome in data set [17], in data set [18], in data set [19], in data set [20], in data set [21] and in [22] was Active. Further, the outcome in data set [23], in data set [24], in data set [25], in data set [26], in [27] and in [28] was Active. Besides, the outcome in data set [29], in [30], in [31], in data set [32], in data set [33] and in data set [34] was Active. Besides, the outcome in data set [35] was Active.

`CN1Cc2c(Cl)cc(Cl)cc2[C@H](c2cccc(S(=O)(=O)NCCOCCOCCNC(=O)NCCCCNC(=O)NCCOCCOCCNS(=O)(=O)c3cccc([C@@H]4CN(C)Cc5c(Cl)cc(Cl)cc54)c3)c2)C1` [TENAPANOR] registered an Activity in data set [36] of 80%.

Source of the values: ChEMBL document CHEMBL3880442, “NHE3-binding compounds and methods for inhibiting phosphate transport” (2014).
